Data reported in ChEMBL document CHEMBL1201862, “PubChem BioAssay data set” (2004).
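Method: 48-hour compound exposure of cells in 96-well plates, five concentrations, linear interpolation of endpoints. GI50 marks 50% less growth.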 Calls of active or inactive are those of the source. No stated cut-off is given here; in the data, active = GI50 up to about 1.1 µM and inactive = higher.

Legend:
Experiment in all cases: NCI-60 cell line screen, 48 h
K562 = test system: K562
Hs-578T = test system: Hs-578T
UACC-257 = test system: UACC-257
T47D = test system: T47D
IGROV-1 = test system: IGROV-1
MCF7 = test system: MCF7
LOX IMVI = test system: LOX IMVI
SF-268 = test system: SF-268
SNB-19 = test system: SNB-19
A549 = test system: A549
EKVX = test system: EKVX
U-251 = test system: U-251
TK-10 = test system: TK-10
CCRF-CEM = test system: CCRF-CEM
DU-145 = test system: DU-145
HOP-62 = test system: HOP-62
OVCAR-3 = test system: OVCAR-3
SF-295 = test system: SF-295
SF-539 = test system: SF-539

Structure (SMILES) | GI50 (K562) | GI50 (Hs-578T) | GI50 (UACC-257) | GI50 (T47D) | GI50 (IGROV-1) | GI50 (MCF7) | GI50 (LOX IMVI) | GI50 (SF-268) | GI50 (SNB-19) | GI50 (A549) | GI50 (EKVX) | GI50 (U-251) | GI50 (TK-10) | GI50 (CCRF-CEM) | GI50 (DU-145) | GI50 (HOP-62) | GI50 (OVCAR-3) | GI50 (SF-295) | GI50 (SF-539)
CCCCCCCCCCCCCCCC[N+](C)(C)Cc1ccc(F)cc1 | 1.26 µM (inactive) | 1.89 µM (inactive) | 1.79 µM (inactive) | 3.33 µM (inactive) | 0.383 µM (active) | 1.61 µM (inactive) | 1.47 µM (inactive) | 1.56 µM (inactive) | 1.66 µM (inactive) | 2.67 µM (inactive) | 2 µM (inactive) | 1.43 µM (inactive) | 1.48 µM (inactive) | 0.771 µM (active) | 3.68 µM (inactive) | 1.5 µM (inactive) | 1.94 µM (inactive) | 2.37 µM (inactive) | 1.29 µM (inactive)
O=C1c2ccccc2-c2c1c1ccccc1c(=O)n2-c1ccccc1 | > 60.1 µM (inactive) | 8.36 µM (inactive) | > 82.4 µM (inactive) | 15.8 µM (inactive) | 13.8 µM (inactive) | 19.3 µM (inactive) | 68.5 µM (inactive) | 9.1 µM (inactive) | 5.7 µM (inactive) | 13.1 µM (inactive) | 23.3 µM (inactive) | 9.18 µM (inactive) | 11.7 µM (inactive) | > 100 µM (inactive) | 59.7 µM (inactive) | 4.26 µM (inactive) | 14.4 µM (inactive) | 10.1 µM (inactive) | 4.91 µM (inactive)
COc1ccccc1C1c2cc3c(cc2OC2(OC)COC(=O)C12)OCO3 (stereo not given) | 5.22 µM (inactive) | 5.83 µM (inactive) | 19.7 µM (inactive) | 34.5 µM (inactive) | 13.1 µM (inactive) | 10.3 µM (inactive) | 9.02 µM (inactive) | 14.3 µM (inactive) | 21.2 µM (inactive) | 17.4 µM (inactive) | 24.7 µM (inactive) | 14.2 µM (inactive) | 39.4 µM (inactive) | 12.9 µM (inactive) | 20.4 µM (inactive) | 22.2 µM (inactive) | 9.57 µM (inactive) | 13.2 µM (inactive) | 12.3 µM (inactive)
COc1cccc(CCn2c(N)c(-c3ccccc3)c3ccc([N+](=O)[O-])cc3c2=O)c1 | 1.02 µM (active) | 1.85 µM (inactive) | 17.3 µM (inactive) | 2.05 µM (inactive) | 5.6 µM (inactive) | 3.46 µM (inactive) | 2.43 µM (inactive) | 16.2 µM (inactive) | 16 µM (inactive) | 9.62 µM (inactive) | 12.3 µM (inactive) | 9.29 µM (inactive) | 2.07 µM (inactive) | 11.4 µM (inactive) | 13.7 µM (inactive) | 6.56 µM (inactive) | 2.58 µM (inactive) | 3.78 µM (inactive) | 2.51 µM (inactive)
O=S(=O)(NNc1ccccc1)c1ccccc1 | 4.23 µM (inactive) | 61 µM (inactive) | 27.5 µM (inactive) | 12.6 µM (inactive) | 10.2 µM (inactive) | 14.9 µM (inactive) | 0.834 µM (active) | 38.5 µM (inactive) | 39.7 µM (inactive) | 8.87 µM (inactive) | 14.4 µM (inactive) | 16.2 µM (inactive) | > 100 µM (inactive) | 14.3 µM (inactive) | 13.2 µM (inactive) | 12.4 µM (inactive) | 11.3 µM (inactive) | 0.646 µM (active) | 32.7 µM (inactive)
CCOC(=O)/C=C\[C@H]1OC(C)(C)O[C@H]1[C@H](O)[C@H]1COC(C)(C)O1 | 10.4 µM (inactive) | 26.8 µM (inactive) | 22.6 µM (inactive) | 20.5 µM (inactive) | 19.5 µM (inactive) | 20.8 µM (inactive) | 20 µM (inactive) | 25.4 µM (inactive) | > 100 µM (inactive) | > 100 µM (inactive) | 21.1 µM (inactive) | 17.7 µM (inactive) | 16.1 µM (inactive) | 10.5 µM (inactive) | > 100 µM (inactive) | 66.4 µM (inactive) | 17.4 µM (inactive) | > 100 µM (inactive) | 17.7 µM (inactive)
C=C(Cl)COC(=O)Nc1cccc(Cl)c1 | 54.6 µM (inactive) | 34 µM (inactive) | 31 µM (inactive) | 22.9 µM (inactive) | 26.7 µM (inactive) | 28.1 µM (inactive) | 35.6 µM (inactive) | 40.1 µM (inactive) | 35.6 µM (inactive) | 30.3 µM (inactive) | 22.5 µM (inactive) | 34.4 µM (inactive) | 60 µM (inactive) | 28.2 µM (inactive) | 31.1 µM (inactive) | 38.3 µM (inactive) | 28.1 µM (inactive) | 25.7 µM (inactive) | 54.8 µM (inactive)
CC(=O)Nc1cc(/C=C\C(=O)N2CC(CCl)c3c2cc(N)c2ccccc32)n(C)n1 (stereo not given) | 0.00417 µM (active) | 0.0543 µM (active) | 0.0132 µM (active) | 0.00299 µM (active) | 0.0137 µM (active) | 0.00204 µM (active) | 0.00879 µM (active) | 0.0057 µM (active) | 0.0386 µM (active) | 0.00614 µM (active) | 0.0251 µM (active) | 0.0031 µM (active) | 0.0191 µM (active) | < 0.001 µM (active) | < 0.001 µM (active) | 0.00347 µM (active) | 0.0164 µM (active) | 0.0135 µM (active) | 0.00621 µM (active)
COc1ccccc1NC(=S)Nc1cccc(C)n1 | > 100 µM (inactive) | 37.2 µM (inactive) | > 100 µM (inactive) | > 100 µM (inactive) | 31.8 µM (inactive) | > 100 µM (inactive) | > 100 µM (inactive) | 18.4 µM (inactive) | > 100 µM (inactive) | > 100 µM (inactive) | 16.2 µM (inactive) | > 100 µM (inactive) | > 100 µM (inactive) | > 100 µM (inactive) | > 100 µM (inactive) | 43.6 µM (inactive) | > 100 µM (inactive) | 69 µM (inactive) | > 100 µM (inactive)
O=C1Nc2ccccc2/C1=C1/Nc2ccccc2/C1=N\OCCNCC(O)C(O)C(O)C(O)CO (stereo not given) | 16.3 µM (inactive) | 13.4 µM (inactive) | 13.5 µM (inactive) | 6.7 µM (inactive) | 6.62 µM (inactive) | 12.4 µM (inactive) | 8.53 µM (inactive) | 11.9 µM (inactive) | 13.6 µM (inactive) | 44.4 µM (inactive) | 30.3 µM (inactive) | 12.9 µM (inactive) | 35.8 µM (inactive) | 10.5 µM (inactive) | 21.2 µM (inactive) | 11.7 µM (inactive) | 11.6 µM (inactive) | 30.7 µM (inactive) | 14.1 µM (inactive)
Cc1ccc(S(=O)(=O)N(CC(O)COc2ccccc2)c2ccccc2Cl)cc1 (stereo not given) | 11.6 µM (inactive) | 10.9 µM (inactive) | 14.7 µM (inactive) | 24.9 µM (inactive) | 12.5 µM (inactive) | 20.5 µM (inactive) | 17.3 µM (inactive) | 17.1 µM (inactive) | 18.2 µM (inactive) | 11.8 µM (inactive) | 13.6 µM (inactive) | 14.4 µM (inactive) | 14.2 µM (inactive) | 13.9 µM (inactive) | 28.8 µM (inactive) | 20 µM (inactive) | 19 µM (inactive) | 24.3 µM (inactive) | 18 µM (inactive)
O=C1C=CC(=O)c2c(O)c(N(CCCl)CCCl)c(Cl)c(O)c21 | 4.79 µM (inactive) | 6.25 µM (inactive) | 3.3 µM (inactive) | 4.71 µM (inactive) | > 6.68 µM (inactive) | 5.07 µM (inactive) | 4.49 µM (inactive) | 5.46 µM (inactive) | > 10 µM (inactive) | > 9.71 µM (inactive) | > 8.91 µM (inactive) | 5.73 µM (inactive) | 3.35 µM (inactive) | 1.25 µM (inactive) | > 8.63 µM (inactive) | > 9.48 µM (inactive) | 4.74 µM (inactive) | > 10 µM (inactive) | 5.24 µM (inactive)
COC1=CC2(C=CC1=O)CCNC1=C2C(=O)c2nc[nH]c2C1=O (stereo not given) | > 100 µM (inactive) | > 100 µM (inactive) | > 100 µM (inactive) | > 100 µM (inactive) | > 100 µM (inactive) | > 100 µM (inactive) | > 100 µM (inactive) | > 100 µM (inactive) | > 100 µM (inactive) | > 100 µM (inactive) | > 100 µM (inactive) | > 100 µM (inactive) | > 100 µM (inactive) | > 100 µM (inactive) | > 100 µM (inactive) | > 100 µM (inactive) | 41.8 µM (inactive) | > 100 µM (inactive) | > 100 µM (inactive)
COC(=O)C1Cc2ccc(C)cc2C1=O (stereo not given) | > 100 µM (inactive) | > 100 µM (inactive) | > 100 µM (inactive) | > 100 µM (inactive) | > 100 µM (inactive) | > 100 µM (inactive) | > 100 µM (inactive) | > 100 µM (inactive) | > 100 µM (inactive) | > 100 µM (inactive) | > 100 µM (inactive) | > 100 µM (inactive) | > 100 µM (inactive) | > 100 µM (inactive) | > 100 µM (inactive) | > 100 µM (inactive) | > 100 µM (inactive) | > 100 µM (inactive) | > 100 µM (inactive)
CC(C)OC(=O)c1cc(NC(=S)OC(C)C)ccc1Cl | 30.4 µM (inactive) | 17.1 µM (inactive) | 21.1 µM (inactive) | 23 µM (inactive) | 28.8 µM (inactive) | 20.9 µM (inactive) | 17.2 µM (inactive) | 26.9 µM (inactive) | 27 µM (inactive) | 25.2 µM (inactive) | 7.8 µM (inactive) | 22.9 µM (inactive) | 22.8 µM (inactive) | 39.3 µM (inactive) | 30.1 µM (inactive) | 90.4 µM (inactive) | 25.6 µM (inactive) | 18.5 µM (inactive) | 14.8 µM (inactive)
